The values that follow come from patent US6706716B2, “Compounds specific for the human α1d adrenergic receptor and uses thereof” (Synaptic Pharmaceutical Corporation, priority 1998, dated 2004).

Data set [1] addresses T1, α1B adrenoceptor (Rattus norvegicus, UniProt P15823).
T1 construct: from tissue; host or cells: rat splenic preparations
T1 sequence (P15823 1-515): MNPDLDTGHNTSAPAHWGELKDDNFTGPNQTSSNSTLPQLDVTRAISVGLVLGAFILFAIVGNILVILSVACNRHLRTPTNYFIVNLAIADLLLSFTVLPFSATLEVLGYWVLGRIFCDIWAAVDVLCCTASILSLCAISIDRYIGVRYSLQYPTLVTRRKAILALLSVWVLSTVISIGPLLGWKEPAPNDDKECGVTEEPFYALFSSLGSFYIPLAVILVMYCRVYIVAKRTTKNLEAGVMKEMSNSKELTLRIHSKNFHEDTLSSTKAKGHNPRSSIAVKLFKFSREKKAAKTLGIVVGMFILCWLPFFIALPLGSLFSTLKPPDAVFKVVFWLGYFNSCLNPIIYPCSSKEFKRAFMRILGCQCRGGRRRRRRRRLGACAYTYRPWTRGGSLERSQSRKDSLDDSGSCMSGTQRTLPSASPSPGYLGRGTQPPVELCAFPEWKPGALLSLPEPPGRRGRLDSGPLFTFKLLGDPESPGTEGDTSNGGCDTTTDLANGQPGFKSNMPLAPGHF
The data set is described as follows: Isolated tissue functional assay, spleen (phenylephrine induced contraction). How it is done: The functional in vitro activity of Compound 7 was characterized in several pharmacologically defined α1 adrenoceptor subtype isolated tissue assays (Aboud et al., 1993). (Rat epididymal vas deferens was used to determine α1A functional responses, spleen was used for α1B responses, and thoracic aorta was used for α1D responses.) Experiments were carried out according to the method of Deng et al., 1996, with minor buffer and tissue setup tension modifications. Krebs additionally contained 0.1 μM desipramine and 10 μM corticosterone to block neuronal and extra neuronal uptake, respectively, and 0.3 μM idazoxan to eliminate α2 mediated responses. Aorta and vas deferens strips were set at 0.5 g resting tension, and the splenic preparations were tensioned to 1 g. All preparations were equilibrated for 1 hr before the addition of drugs.
Additionally, its antagonist potency was determined by its ability to antagonize phenylephrine (PE) induced contraction in each of these preparations. The degree of shift of the PE agonist dose response-curve in the presence of Compound 7 was measured and pKB values were calculated (mean±s.e.m.).

Data set [2] concerns conscious, normotensive rats. The data set is described as follows: Mean arterial blood pressure in conscious, normotensive rats. Format: in vivo, rat. Conditions: 4.0 mg/kg i.v., 0-60 min. The procedure: Rats were anesthetized and a PE50 chronic indwelling cannula was placed in the abdominal aorta for measurement of blood pressure. On the following day, 5 rats each were administered vehicle (1% DMSO) or Compound 7 (4.0 mg/kg in 1% DMSO, i.v.) and mean blood pressure measurements were recorded at 0, 5, 30, and 60 minutes thereafter.

Molecules are shown by their SMILES.

With `O=C1CC2(CCCC2)CC(=O)N1CCN1CCN(c2cc(F)c(F)cc2F)CC1` [Compound 7, 8-{2-[4-(2,4,5-Trifluorophenyl)piperazin-1-yl]ethyl}-8-azaspiro[4.5]decane-7,9-dione], in data set [1] (concentrations up to 10 μM, rat spleen (α1B model)), the agonist activity result is “failed to produce agonist activity”. In addition, the Kb in data set [1] (rat spleen (α1B), mean±s.e.m., read-out: pKB (antagonism of phenylephrine induced contraction) (converted)) is 200 nM. In addition, the “fold less effective than in the aorta” value in data set [1] (spleen versus aorta) is “approximately 60 fold”. Also, the “effect on mean blood pressure” value in data set [2] is given as “no reduction in blood pressure”.
